Results from patent publication US8399452B2, “Dibenzo[b,f][1,4]oxazepin-11-yl-N-hydroxybenzamides as HDAC inhibitors” (Methylgene Inc., priority 2006, dated 2013).

Each molecule was assayed against histone deacetylase (HDAC Enzyme) (assay: Inhibition of Histone Deacetylase Enzymatic Activity (Boc-Lys(Ac)-AMC, Fluor-de-Lys developer)). Conditions: Table 9; read-out: HDAC Inhibition (IC50 μM) HDAC Enzyme.
Format: biochemical
Description: The following protocol is used to assay the compounds of the invention.
The mixture is pre-incubated for 5 minutes at room temperature. The reaction is started by bringing the temperature to 37° C. and adding 16 μl substrate. Total reaction volume is 50 μl.
In the Tables 8, 9 and 10, A≦[…]<B≦0.1 μM; 0.1 μM<C≦1 μM; and 1 μM<D≦10 μM.

| SMILES | IC50 |
| --- | --- |
| O=C(NO)c1cnc(N2CC3CC(CN(c4cc(C(F)(F)F)ccn4)C3)C2)nc1 [N-hydroxy-2-(7-(4-(trifluoromethyl)pyridin-2-yl)-3,7-diazabicyclo[3.3.1]nonan-3-yl)pyrimidine-5-carboxamide] | 0.1 to 1 µM |
| O=C(NO)c1cnc(N2C[C@H]3C[C@@H]2CN3c2cc(C(F)(F)F)ccn2)nc1 [N-hydroxy-2-((1R,4R)-5-(4-(trifluoromethyl)pyridin-2-yl)-2,5-diazabicyclo[2.2.1]heptan-2-yl)pyrimidine-5-carboxamide] | < 0.05 µM |
| Cc1cccc(N2C[C@H]3C[C@@H]2CN3c2ncc(C(=O)NO)cn2)c1 [N-hydroxy-2-((1R,4R)-5-m-tolyl-2,5-diazabicyclo[2.2.1]heptan-2-yl)pyrimidine-5-carboxamide] | 0.05 to 0.1 µM |
| Cc1ccc(N2C[C@H]3C[C@@H]2CN3c2ncc(C(=O)NO)cn2)cc1 [N-hydroxy-2-((1R,4R)-5-p-tolyl-2,5-diazabicyclo[2.2.1]heptan-2-yl)pyrimidine-5-carboxamide] | < 0.05 µM |
| O=C(NO)c1cnc(N2C[C@@H]3C[C@H]2CN3c2ccccc2C(F)(F)F)nc1 [N-hydroxy-2-((1S,4S)-5-(2-(trifluoromethyl)phenyl)-2,5-diazabicyclo[2.2.1]heptan-2-yl)pyrimidine-5-carboxamide] | 0.1 to 1 µM |
| O=C(NO)c1cnc(N2C[C@@H]3C[C@H]2CN3c2cc(C(F)(F)F)nc3ccccc23)nc1 [N-hydroxy-2-((1S,4S)-5-(2-(trifluoromethyl)quinolin-4-yl)-2,5-diazabicyclo[2.2.1]heptan-2-yl)pyrimidine-5-carboxamide] | < 0.05 µM |
| O=C(NO)c1cnc(N2C[C@@H]3C[C@H]2CN3c2cccc(OC(F)(F)F)c2)nc1 [N-hydroxy-2-((1S,4S)-5-(3-(trifluoromethoxy)phenyl)-2,5-diazabicyclo[2.2.1]heptan-2-yl)pyrimidine-5-carboxamide] | < 0.05 µM |
| O=C(NO)c1cnc(N2C[C@@H]3C[C@H]2CN3C(=O)c2cccc(C(F)(F)F)c2)nc1 [N-hydroxy-2-((1S,4S)-5-(3-(trifluoromethyl)benzoyl)-2,5-diazabicyclo[2.2.1]heptan-2-yl)pyrimidine-5-carboxamide] | 0.05 to 0.1 µM |
| O=C(NO)c1cnc(N2C[C@@H]3C[C@H]2CN3c2cccc(C(F)(F)F)c2)nc1 [N-hydroxy-2-((1S,4S)-5-(3-(trifluoromethyl)phenyl)-2,5-diazabicyclo[2.2.1]heptan-2-yl)pyrimidine-5-carboxamide] | < 0.05 µM |
| O=C(NO)c1cnc(N2C[C@@H]3C[C@H]2CN3c2cccc(C(F)(F)F)c2)s1 [N-hydroxy-2-((1S,4S)-5-(3-(trifluoromethyl)phenyl)-2,5-diazabicyclo[2.2.1]heptan-2-yl)thiazole-5-carboxamide] | < 0.05 µM |
| O=C(NO)c1cnc(N2C[C@@H]3C[C@H]2CN3c2cccc(SC(F)(F)F)c2)nc1 [N-hydroxy-2-((1S,4S)-5-(3-(trifluoromethylthio)phenyl)-2,5-diazabicyclo[2.2.1]heptan-2-yl)pyrimidine-5-carboxamide] | < 0.05 µM |
| COc1cccc(N2C[C@@H]3C[C@H]2CN3c2ncc(C(=O)NO)cn2)c1 [N-hydroxy-2-((1S,4S)-5-(3-methoxyphenyl)-2,5-diazabicyclo[2.2.1]heptan-2-yl)pyrimidine-5-carboxamide] | < 0.05 µM |

Same assay, conditions: Table 10; read-out: HDAC Inhibition (IC50 μM) HDAC Enzyme

| SMILES | IC50 |
| --- | --- |
| O=C(CCCCCN1C(=O)CN=C(c2ccccc2)c2ccccc21)NO [(Z)-N-hydroxy-6-(2-oxo-5-phenyl-2,3-dihydro-1H-benzo[e][1,4]diazepin-1-yl)hexanamide] | 0.1 to 1 µM |
| O=C(CCCCCCCN1C(=O)CN=C(c2ccccc2)c2ccccc21)NO [(Z)-N-hydroxy-8-(2-oxo-5-phenyl-2,3-dihydro-1H-benzo[e][1,4]diazepin-1-yl)octanamide] | 0.1 to 1 µM |
| O=C(NO)c1cnc(N2CCn3c(nnc3C(F)(F)F)C2)nc1 [N-hydroxy-2-(3-(trifluoromethyl)-5,6-dihydro-[1,2,4]triazolo[4,3-a]pyrazin-7(8H)-yl)pyrimidine-5-carboxamide] | 0.05 to 0.1 µM |
| O=C(NO)c1cnc(N2CCn3c(nnc3-c3ccccc3)C2)nc1 [N-hydroxy-2-(3-phenyl-5,6-dihydro-[1,2,4]triazolo[4,3-a]pyrazin-7(8H)-yl)pyrimidine-5-carboxamide] | < 0.05 µM |
| O=C(NO)c1cnc(N2C[C@H]3C[C@@]3(c3ccccc3)C2)nc1 [N-hydroxy-2-((1R,5S)-1-phenyl-3-azabicyclo[3.1.0]hexan-3-yl)pyrimidine-5-carboxamide] | 0.1 to 1 µM |

Same assay, conditions: read-out: HDAC Inhibtion (IC50 μM) HDAC Enzyme

| SMILES | IC50 |
| --- | --- |
| Cc1ccc2c(c1)Oc1ccccc1N=C2c1ccc(C(=O)NO)cc1 [(Z)-N-hydroxy-4-(3-methyldibenzo[b,f][1,4]oxazepin-11-yl)benzamide] | < 0.05 µM |
| O=C(NO)c1ccc(C2=Nc3ccccc3Oc3cc(N4CCOCC4)ccc32)cc1 [(Z)-N-hydroxy-4-(3-morpholinodibenzo[b,f][1,4]oxazepin-11-yl)benzamide] | 0.1 to 1 µM |
| COCCOc1cccc2c1Oc1ccccc1N=C2c1ccc(C(=O)NO)cc1 [(Z)-N-hydroxy-4-(4-(2-methoxyethoxy)dibenzo[b,f][1,4]oxazepin-11-yl)benzamide] | < 0.05 µM |
| O=C(NO)c1ccc(C2=Nc3ccccc3Oc3c(OCCN4CCOCC4)cccc32)cc1 [(Z)-N-hydroxy-4-(4-(2-morpholinoethoxy)dibenzo[b,f][1,4]oxazepin-11-yl)benzamide] | < 0.05 µM |
| C[S+]([O-])c1cccc2c1Oc1ccccc1N=C2c1ccc(C(=O)NO)cc1 (stereo not drawn) [(Z)-N-hydroxy-4-(4-(methylsulfinyl)dibenzo[b,f][1,4]oxazepin-11-yl)benzamide] | 0.05 to 0.1 µM |
| CS(=O)(=O)c1cccc2c1Oc1ccccc1N=C2c1ccc(C(=O)NO)cc1 [(Z)-N-hydroxy-4-(4-(methylsulfonyl)dibenzo[b,f][1,4]oxazepin-11-yl)benzamide] | < 0.05 µM |
| CSc1cccc2c1Oc1ccccc1N=C2c1ccc(C(=O)NO)cc1 [(Z)-N-hydroxy-4-(4-(methylthio)dibenzo[b,f][1,4]oxazepin-11-yl)benzamide] | < 0.05 µM |
| O=C(NO)c1ccc(C2=Nc3ccccc3Oc3c(OC(F)(F)F)cccc32)cc1 [(Z)-N-hydroxy-4-(4-(trifluoromethoxy)dibenzo[b,f][1,4]oxazepin-11-yl)benzamide] | 0.1 to 1 µM |
| O=C(NO)c1ccc(C2=Nc3ccccc3Oc3c2cccc3C(F)(F)F)cc1 [(Z)-N-hydroxy-4-(4-(trifluoromethyl)dibenzo[b,f][1,4]oxazepin-11-yl)benzamide] | < 0.05 µM |
| O=C(NO)c1ccc(C2=Nc3ccccc3Oc3c(O)cccc32)cc1 [(Z)-N-hydroxy-4-(4-hydroxydibenzo[b,f][1,4]oxazepin-11-yl)benzamide] | 0.05 to 0.1 µM |
| COc1cccc2c1Oc1ccc(C(F)(F)F)cc1N=C2c1ccc(C(=O)NO)cc1 [(Z)-N-hydroxy-4-(4-methoxy-8-(trifluoromethyl)dibenzo[b,f][1,4]oxazepin-11-yl)benzamide] | 0.1 to 1 µM |
| COc1cccc2c1Oc1ccccc1N=C2c1ccc(C(=O)NO)cc1 [(Z)-N-hydroxy-4-(4-methoxydibenzo[b,f][1,4]oxazepin-11-yl)benzamide] | 0.05 to 0.1 µM |
| Cc1cccc2c1Oc1ccccc1N=C2c1ccc(C(=O)NO)cc1 [(Z)-N-hydroxy-4-(4-methyldibenzo[b,f][1,4]oxazepin-11-yl)benzamide] | 0.05 to 0.1 µM |
| CCCc1cccc2c1Oc1ccccc1N=C2c1ccc(C(=O)NO)cc1 [(Z)-N-hydroxy-4-(4-propyldibenzo[b,f][1,4]oxazepin-11-yl)benzamide] | 0.1 to 1 µM |
| COCCN1c2ccccc2N=C(c2ccc(C(=O)NO)cc2)c2ccccc21 [(Z)-N-hydroxy-4-(5-(2-methoxyethyl)-5H-dibenzo[b,e][1,4]diazepin-11-yl)benzamide] | 0.1 to 1 µM |
| O=C(NO)c1ccc(C2=Nc3ccccc3N(CCN3CCOCC3)c3ccccc32)cc1 [(Z)-N-hydroxy-4-(5-(2-morpholinoethyl)-5H-dibenzo[b,e][1,4]diazepin-11-yl)benzamide] | 0.1 to 1 µM |
| CC(C)N1c2ccccc2N=C(c2ccc(C(=O)NO)cc2)c2ccccc21 [(Z)-N-hydroxy-4-(5-isopropyl-5H-dibenzo[b,e][1,4]diazepin-11-yl)benzamide] | < 0.05 µM |
| Cc1cccc2c1Oc1ccccc1C(c1ccc(C(=O)NO)cc1)=N2 [(Z)-N-hydroxy-4-(6-methyldibenzo[b,f][1,4]oxazepin-11-yl)benzamide] | 0.1 to 1 µM |
| O=C(NO)c1ccc(C2=Nc3ccc(C(F)(F)F)cc3Oc3ccccc32)cc1 [(Z)-N-hydroxy-4-(7-(trifluoromethyl)dibenzo[b,f][1,4]oxazepin-11-yl)benzamide] | 0.1 to 1 µM |
| O=C(NO)c1ccc(C2=Nc3cc(C(F)(F)F)ccc3Oc3ccccc32)cc1 [(Z)-N-hydroxy-4-(8-(trifluoromethyl)dibenzo[b,f][1,4]oxazepin-11-yl)benzamide] | 0.1 to 1 µM |
| Cc1ccc2c(c1)N=C(c1ccc(C(=O)NO)cc1)c1ccccc1O2 [(Z)-N-hydroxy-4-(8-methyldibenzo[b,f][1,4]oxazepin-11-yl)benzamide] | 0.05 to 0.1 µM |
| O=C(NO)c1ccc(C2=Nc3ccccc3N(CCN3CCOCC3)c3ncccc32)cc1 [(Z)-N-hydroxy-4-(11-(2-morpholinoethyl)-11H-benzo[b]pyrido[2,3-e][1,4]diazepin-5-yl)benzamide] | 0.05 to 0.1 µM |
| O=C(NO)c1ccc(C2=Nc3ccccc3N(CCCN3CCOCC3)c3ncccc32)cc1 [(Z)-N-hydroxy-4-(11-(3-morpholinopropyl)-11H-benzo[b]pyrido[2,3-e][1,4]diazepin-5-yl)benzamide] | 0.1 to 1 µM |
| CC(C)N1c2ccccc2N=C(c2ccc(C(=O)NO)cc2)c2cccnc21 [(Z)-N-hydroxy-4-(11-isopropyl-11H-benzo[b]pyrido[2,3-e][1,4]diazepin-5-yl)benzamide] | < 0.05 µM |
| O=C(NO)c1ccc2c(c1)N=C(c1ccncc1)c1ccccc1O2 [(Z)-N-hydroxy-11-(pyridin-4-yl)dibenzo[b,f][1,4]oxazepine-8-carboxamide] | 0.1 to 1 µM |
